Data published in publication PMC8017969, “Redox regulation of NADP-malate dehydrogenase is vital for land plants under fluctuating light environment” (Proceedings of the National Academy of Sciences of the …, 2021).

Assays:
MDHΔC = biological target: T1, MDHΔC (Arabidopsis thaliana, UniProt Q8H1E2); assay: NADPH oxidation monitored at […] nm, Michaelis-Menten fit; assay type: biochemical; settings: reduced enzyme (pretreated with Trx-f1 and DTT); 0-200 μM oxaloacetate, 100 μM NADPH, 0.01 μM MDH, pH 7.5, 50 mM NaCl, 25 °C
T1 construct: gene At5g58330; mature enzyme from Ser54 plus start Met, C-terminal extension from Cys430 to C terminus deleted, pET-23c, expressed in E. coli
T1 sequence (Q8H1E2 54-429): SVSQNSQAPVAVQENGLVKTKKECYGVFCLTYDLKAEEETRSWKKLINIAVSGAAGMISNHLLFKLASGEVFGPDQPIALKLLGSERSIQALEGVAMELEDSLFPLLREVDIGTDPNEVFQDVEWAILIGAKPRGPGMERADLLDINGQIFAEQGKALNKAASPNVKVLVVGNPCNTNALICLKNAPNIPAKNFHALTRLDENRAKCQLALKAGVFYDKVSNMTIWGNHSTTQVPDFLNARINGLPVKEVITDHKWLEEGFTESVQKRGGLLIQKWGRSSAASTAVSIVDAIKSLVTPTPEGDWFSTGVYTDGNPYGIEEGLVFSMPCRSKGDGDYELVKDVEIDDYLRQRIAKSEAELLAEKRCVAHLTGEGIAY

[1] = biological target: T2, MDHWT (chloroplast NADP-malate dehydrogenase) (Arabidopsis thaliana, UniProt Q8H1E2); assay: as above; assay type: biochemical; settings: reduced enzyme (pretreated with Trx-f1 and DTT); 0-200 μM oxaloacetate, 100 μM NADPH, 0.01 μM MDH, pH 7.5, 50 mM NaCl, 25 °C
T2 construct: gene At5g58330; mature enzyme from Ser54 plus start Met (transit peptide removed), pET-23c, expressed in E. coli, purified with added size exclusion step
T2 sequence (Q8H1E2 54-443): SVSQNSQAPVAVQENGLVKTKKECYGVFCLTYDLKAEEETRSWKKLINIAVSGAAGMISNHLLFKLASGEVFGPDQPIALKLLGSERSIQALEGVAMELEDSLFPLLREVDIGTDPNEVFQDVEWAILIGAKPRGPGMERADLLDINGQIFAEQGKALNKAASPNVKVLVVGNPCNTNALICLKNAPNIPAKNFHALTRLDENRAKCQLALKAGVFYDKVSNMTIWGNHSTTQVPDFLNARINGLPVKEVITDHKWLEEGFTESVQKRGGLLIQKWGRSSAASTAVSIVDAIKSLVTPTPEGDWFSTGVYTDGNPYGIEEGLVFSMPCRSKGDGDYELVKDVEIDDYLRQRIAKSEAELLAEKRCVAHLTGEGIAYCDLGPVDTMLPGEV

With `O=C(O)CC(=O)C(=O)O` [oxaloacetate] the “NADPH oxidation monitored at 340 nm, Michaelis-Menten fit” value (MDHΔC) was “Activities of recombinant MDHWT and MDHΔC” and the “NADPH oxidation monitored at 340 nm, Michaelis-Menten fit” value [1] was “Activities of recombinant MDHWT and MDHΔC”.
